We go through 31 compounds from patent US12509444B2, “Compounds and methods for CD73 modulation and indications therefor” (Plexxikon Inc., priority 2019, dated 2025).

This assay concerns the target T1, Human CD73 (amino acid residues 27-549) (Homo sapiens, UniProt P21589).
T1 construct: Human CD73 (amino acid residues 27-549); His tag (N); made in house; host or cells: E. coli
T1 sequence (P21589 27-549): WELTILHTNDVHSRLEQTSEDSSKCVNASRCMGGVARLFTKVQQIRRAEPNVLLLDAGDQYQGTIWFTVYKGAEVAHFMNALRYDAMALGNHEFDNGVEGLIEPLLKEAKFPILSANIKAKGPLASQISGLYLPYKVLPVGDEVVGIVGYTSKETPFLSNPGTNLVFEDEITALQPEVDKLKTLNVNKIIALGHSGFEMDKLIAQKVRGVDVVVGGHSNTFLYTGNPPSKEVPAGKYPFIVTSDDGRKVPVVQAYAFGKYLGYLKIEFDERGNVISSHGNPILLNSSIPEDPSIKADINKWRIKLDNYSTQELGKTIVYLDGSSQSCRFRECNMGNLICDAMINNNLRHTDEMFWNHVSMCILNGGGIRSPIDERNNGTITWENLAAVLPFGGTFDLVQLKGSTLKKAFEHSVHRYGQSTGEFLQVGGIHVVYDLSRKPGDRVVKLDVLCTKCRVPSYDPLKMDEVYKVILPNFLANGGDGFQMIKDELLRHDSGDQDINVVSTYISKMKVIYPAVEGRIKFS
The experiment in a line: CD73 enzymatic assay (luciferase-based indirect assay, CellTiter-Glo). The format is biochemical. The following applies: 0.4 nM CD73, 150 μM AMP, 1 hour at room temperature. As to the method: CD73 enzymatic activity was measured in a luciferase-based indirect assay using CellTiter-Glo® system from Promega. The luciferase reaction in the presence of ATP is inhibited by AMP, a primary substrate of CD73. Addition of CD73 enzyme to the reaction converts AMP to adenosine, and release the inhibition, producing a luminescent signal. Inhibition of CD73 leads to the decrease of this luminescent signal.
Human CD73 (amino acid residues 27-549) with N-Terminal His tag was purified in E. coli. All the assay components were prepared in 50 mM HEPEs buffer (pH 7.4) with 0.01% Tween® 20. The CD73 enzymatic assay was performed using 0.4 nM CD73 and 150 μM AMP. 9.5 μL of CD73 protein and 9.5 μL of AMP were added to the wells of a 384 well plate containing 1 μL of various concentrations of test compound or DMSO vehicle and incubated for 1 hour at room temperature. 16 wells containing CD73, AMP and 5% DMSO served as high control. 16 wells containing AMP and 5% DMSO served as low control. Enzymatic reaction was stopped and AMP level was measured indirectly by adding 5 μL of CellTiter-Glo® 2.0 reagent and 5 μL of ATP with a final concentration of 1 μM. Following incubation of the plate at room temperature for 30 minutes, luminescent signal was read on a Tecan plate reader. The percentage inhibition at individual concentrations relative to high and low controls was calculated. The data were analyzed by using nonlinear regression to generate IC50 values.
`CCCCOC(=O)N[C@@H]1CCN(c2cn[nH]c(=O)c2Cl)C1` [P-0001, butyl (R)-(1-(5-chloro-6-oxo-1,6-dihydropyridazin-4-yl)pyrrolidin-3-yl)carbamate] showed an IC50 of 0.001 to 10 µM.
As for `CC(C)(C)OC(=O)N[C@H]1CCN(c2cn[nH]c(=O)c2Cl)C1` [P-0002, tert-butyl (S)-(1-(5-chloro-6-oxo-1,6-dihydropyridazin-4-yl)pyrrolidin-3-yl)carbamate], the half-inhibitory concentration (IC50) was 10 to 100 µM.
For the compound `O=C(NC1CCCCCC1)N[C@@H]1CCN(c2cn[nH]c(=O)c2Cl)C1` [P-0003, (R)-1-(1-(5-chloro-6-oxo-1,6-dihydropyridazin-4-yl)pyrrolidin-3-yl)-3-cycloheptylurea], the IC50 lay in the range of 0.001 to 10 µM.
For `O=C(NCC1CCCC1)N[C@@H]1CCN(c2cn[nH]c(=O)c2Cl)C1` [P-0004, (R)-1-(1-(5-chloro-6-oxo-1,6-dihydropyridazin-4-yl)pyrrolidin-3-yl)-3-(cyclopentylmethyl)urea], the IC50 is 0.001 to 10 µM.
With `O=C(NCC1CCOC1)N[C@@H]1CCN(c2cn[nH]c(=O)c2Cl)C1` (stereo partly drawn) [P-0005, 1-((R)-1-(5-chloro-6-oxo-1,6-dihydropyridazin-4-yl)pyrrolidin-3-yl)-3-((tetrahydrofuran-3-yl)methyl)urea], the IC50 is 0.001 to 10 µM.
In the case of `O=C(NCC1CCS(=O)(=O)C1)N[C@@H]1CCN(c2cn[nH]c(=O)c2Cl)C1` (stereo partly drawn) [P-0006, 1-((R)-1-(5-chloro-6-oxo-1,6-dihydropyridazin-4-yl)pyrrolidin-3-yl)-3-((1,1-dioxidotetrahydrothiophen-3-yl)methyl)urea], the IC50 fell in the range of 10 to 100 µM.
Take `O=C(NCC1CCCCC1)N[C@@H]1CCN(c2cn[nH]c(=O)c2Cl)C1` [P-0007, (R)-1-(1-(5-chloro-6-oxo-1,6-dihydropyridazin-4-yl)pyrrolidin-3-yl)-3-(cyclohexylmethyl)urea]: the half-inhibitory concentration (IC50) was in the range of 0.001 to 10 µM.
The figure for `O=C(NCC1CCOCC1)N[C@@H]1CCN(c2cn[nH]c(=O)c2Cl)C1` [P-0008, (R)-1-(1-(5-chloro-6-oxo-1,6-dihydropyridazin-4-yl)pyrrolidin-3-yl)-3-((tetrahydro-2H-pyran-4-yl)methyl)urea] is 0.001 to 10 µM; for `O=C(Nc1cccnc1)N[C@@H]1CCN(c2cn[nH]c(=O)c2Cl)C1` [P-0009, (R)-1-(1-(5-chloro-6-oxo-1,6-dihydropyridazin-4-yl)pyrrolidin-3-yl)-3-(pyridin-3-yl)urea] it is 10 to 100 µM.
Regarding `O=C(N[C@@H]1CCN(c2cn[nH]c(=O)c2Cl)C1)Oc1ccccc1` [P-0010, phenyl (R)-(1-(5-chloro-6-oxo-1,6-dihydropyridazin-4-yl)pyrrolidin-3-yl)carbamate], the IC50 was in the range of 0.001 to 10 µM.
The figure for `CC(C)(C)OC(=O)N[C@@H]1CCN(c2cn[nH]c(=O)c2Br)C1` [P-0011, tert-butyl (R)-(1-(5-bromo-6-oxo-1,6-dihydropyridazin-4-yl)pyrrolidin-3-yl)carbamate] is 0.001 to 10 µM; for `Cc1occc1NC(=O)N[C@@H]1CCN(c2cn[nH]c(=O)c2Cl)C1` [P-0012, (R)-1-(1-(5-chloro-6-oxo-1,6-dihydropyridazin-4-yl)pyrrolidin-3-yl)-3-(2-methylfuran-3-yl)urea] it is 0.001 to 10 µM.
Compound `O=C(Nc1ccsc1)N[C@@H]1CCN(c2cn[nH]c(=O)c2Cl)C1` [P-0013, (R)-1-(1-(5-chloro-6-oxo-1,6-dihydropyridazin-4-yl)pyrrolidin-3-yl)-3-(thiophen-3-yl)urea] had an IC50 of 0.001 to 10 µM.
The compound `Cn1cc(NC(=O)N[C@@H]2CCN(c3cn[nH]c(=O)c3Cl)C2)cn1` [P-0014, (R)-1-(1-(5-chloro-6-oxo-1,6-dihydropyridazin-4-yl)pyrrolidin-3-yl)-3-(1-methyl-1H-pyrazol-4-yl)urea] returned an IC50 of 10 to 100 µM.
The figure for `COCCCNC(=O)N[C@@H]1CCN(c2cn[nH]c(=O)c2Cl)C1` [P-0016, (R)-1-(1-(5-chloro-6-oxo-1,6-dihydropyridazin-4-yl)pyrrolidin-3-yl)-3-(3-methoxypropyl)urea] is 10 to 100 µM; for `O=C(NC1CCCC1)N[C@H]1CCN(c2cn[nH]c(=O)c2Cl)C1` [P-0023, (S)-1-(1-(5-chloro-6-oxo-1,6-dihydropyridazin-4-yl)pyrrolidin-3-yl)-3-cyclopentylurea] it is 10 to 100 µM; for `O=C(NC1CCN(C(=O)C(F)(F)F)CC1)N[C@H]1CCN(c2cn[nH]c(=O)c2Cl)C1` [P-0024, (S)-1-(1-(5-chloro-6-oxo-1,6-dihydropyridazin-4-yl)pyrrolidin-3-yl)-3-(1-(2,2,2-trifluoroacetyl)piperidin-4-yl)urea] it is 10 to 100 µM.
Regarding `O=C(N[C@H]1CCN(c2cn[nH]c(=O)c2Cl)C1)OC1CCCCC1` [P-0025, cyclohexyl (S)-(1-(5-chloro-6-oxo-1,6-dihydropyridazin-4-yl)pyrrolidin-3-yl)carbamate], the IC50 is 0.001 to 10 µM.
In the case of `CCOC(=O)CCNC(=O)N[C@@H]1CCN(c2cn[nH]c(=O)c2Cl)C1` [P-0026, ethyl (R)-3-(3-(1-(5-chloro-6-oxo-1,6-dihydropyridazin-4-yl)pyrrolidin-3-yl)ureido)propanoate], the IC50 is 10 to 100 µM.
With `Cc1noc(C)c1NC(=O)N[C@@H]1CCN(c2cn[nH]c(=O)c2Cl)C1` [P-0027, (R)-1-(1-(5-chloro-6-oxo-1,6-dihydropyridazin-4-yl)pyrrolidin-3-yl)-3-(3,5-dimethylisoxazol-4-yl)urea], the concentration for half-maximal inhibition (IC50) lay within 0.001 to 10 µM.
For the compound `O=C(Nc1cccc(C(F)(F)F)c1)N[C@@H]1CCN(c2cn[nH]c(=O)c2Cl)C1` [P-0028, (R)-1-(1-(5-chloro-6-oxo-1,6-dihydropyridazin-4-yl)pyrrolidin-3-yl)-3-(3-(trifluoromethyl)phenyl)urea], the IC50 was 10 to 100 µM.
With `O=C(NC1CCOCC1)N[C@@H]1CCN(c2cn[nH]c(=O)c2Cl)C1` [P-0029, (R)-1-(1-(5-chloro-6-oxo-1,6-dihydropyridazin-4-yl)pyrrolidin-3-yl)-3-(tetrahydro-2H-pyran-4-yl)urea], the IC50 lay in the range of 0.001 to 10 µM.
As for `O=C(NCc1ccccc1)N[C@@H]1CCN(c2cn[nH]c(=O)c2Cl)C1` [P-0031, (R)-1-benzyl-3-(1-(5-chloro-6-oxo-1,6-dihydropyridazin-4-yl)pyrrolidin-3-yl)urea], the figure is 10 to 100 µM; as for `O=C(NCCc1ccccc1)N[C@@H]1CCN(c2cn[nH]c(=O)c2Cl)C1` [P-0032, (R)-1-(1-(5-chloro-6-oxo-1,6-dihydropyridazin-4-yl)pyrrolidin-3-yl)-3-phenethylurea], 10 to 100 µM; as for `COc1cccc(NC(=O)N[C@@H]2CCN(c3cn[nH]c(=O)c3Cl)C2)c1` [P-0033, (R)-1-(1-(5-chloro-6-oxo-1,6-dihydropyridazin-4-yl)pyrrolidin-3-yl)-3-(3-methoxyphenyl)urea], 10 to 100 µM.
`CCOc1ccc(NC(=O)N[C@@H]2CCN(c3cn[nH]c(=O)c3Cl)C2)cc1` [P-0034, (R)-1-(1-(5-chloro-6-oxo-1,6-dihydropyridazin-4-yl)pyrrolidin-3-yl)-3-(4-ethoxyphenyl)urea] yielded an IC50 of 10 to 100 µM.
`CCOc1cccc(NC(=O)N[C@@H]2CCN(c3cn[nH]c(=O)c3Cl)C2)c1` [P-0035, (R)-1-(1-(5-chloro-6-oxo-1,6-dihydropyridazin-4-yl)pyrrolidin-3-yl)-3-(3-ethoxyphenyl)urea] showed an IC50 of 10 to 100 µM.
Regarding `CC(C)(C)OC(=O)N[C@@H]1CCN(c2cn[nH]c(=O)c2C#N)C1` [P-0036, tert-butyl (R)-(1-(5-cyano-6-oxo-1,6-dihydropyridazin-4-yl)pyrrolidin-3-yl)carbamate], the IC50 lay in the range of 0.001 to 10 µM.
As to `CC(C)(C)OC(=O)N[C@@H]1CCN(c2cn[nH]c(=O)c2)C1` [P-0037, tert-butyl (R)-(1-(6-oxo-1,6-dihydropyridazin-4-yl)pyrrolidin-3-yl)carbamate], the IC50 fell in the range of 10 to 100 µM.
`O=C(Nc1ccccc1)N[C@@H]1CCN(c2cn[nH]c(=O)c2Cl)C1` [P-0038, (R)-1-(1-(5-chloro-6-oxo-1,6-dihydropyridazin-4-yl)pyrrolidin-3-yl)-3-phenylurea] showed an IC50 of 0.001 to 10 µM.
`COc1ccc(CNC(=O)N[C@@H]2CCN(c3cn[nH]c(=O)c3Cl)C2)cc1OC` [P-0040, (R)-1-(1-(5-chloro-6-oxo-1,6-dihydropyridazin-4-yl)pyrrolidin-3-yl)-3-(3,4-dimethoxybenzyl)urea] displayed an IC50 of 10 to 100 µM.
